Assay results reported in PMC10349806 (Nature Communications, 2023).
Several values for one entry are separate records, joined by “and”; a condition that tells them apart may be missing. Identical values can stand only once.

Legend:
PfCRT variant E207Y = experiment: CQ uptake assay, oocytes expressing E207Y; format: cell-based, Plasmodium falciparum
Experimental: (§1) Site-directed mutagenesis of PfCRT^Dd2 was performed as described using the megaprimer method with overlap extension[21],[54]. The primer pairs used are listed in Supplementary Table 6. Please note that a codon-optimized and oocyte-adapted version of PfCRT^Dd2 was used[22] (Supplementary Fig. 16). The resulting DNA fragment was cloned into the SP64T expression vector and verified by sequencing.
(§2) Oocytes were obtained as described previously. Briefly, adult (>2 years old) female X. laevis frogs (NASCO) were anesthetized in a cooled solution of ethyl 3-amino benzoate methanesulfonate (0.1%, w/v), followed by a surgical removal of parts of the ovary. The ovary lobes were carefully dissected and small pieces of oocytes were incubated in Ca^2+-free ND96 buffer (96 mM NaCl, 2 mM KCl, 1 mM MgCl2 buffered with 5 mM HEPES/NaOH, pH 7.5) supplemented with collagenase D (0.1%, w/v; Roche), BSA (0.5%, w/v), and 9 mm Na2HPO4 at 18 °C for 14-16 h while gentle shaking. After incubation, the oocytes were carefully washed several times with ND96 buffer (96 mM NaCl, 2 mM KCl, 1.8 mM CaCl2, 1 mM MgCl2 buffered with 5 mM HEPES/NaOH, pH 7.5) supplemented with 100 mg l^−1 gentamycin). Defolliculated and healthy-looking stage V-VI oocytes were manually selected for RNA microinjection. The RNA was generated as following: The codon-optimized sequences of PfCRT variants were cloned into the pSP64T expression vector. After vector linearization using the restriction endonucleases BamHI or SalI (New England Biolabs), transcription was performed using the in vitro SP6 mMessage mMachine Kit (Ambion)[34]. The obtained RNA was kept at −80 °C and diluted with nuclease-free water to a concentration of 0.6 μg μl^−1. Precision-bore glass capillary tubes (3.5-inch glass capillaries; Drummond Scientific Co.) were pulled on a vertical puller (P-87 Flaming/Brown micropipette puller, Sutter Instrument Co.), graduated, and placed on a microinjector (Nanoject II Auto-Nanoliter Injector, Drummond Scientific Co.). 50 nl of nuclease-free water alone (control oocytes) or 50 nl of 0.6 μg μl^−1 RNA were injected under stereomicroscopic control. Injected oocytes were incubated for 46–72 h at 18 °C with twice-daily buffer changes before usage in experiments.
(§3) Drug uptake assays were performed as described previously[21],[22],[24],[34]. […] The direction of radio-labeled drug transport is here from the mostly acidic extracellular solution (pH 4.5 or 6.0, as indicated) into the oocyte cytosol (pH ∼ 7.2), which corresponds to the efflux of drug from the acidic digestive vacuole (pH 5.2) into the parasite cytoplasm (pH 7.2). The topology of PfCRT in the oolemma is such that both the N- and C-terminus face the extracellular milieu[3],[22]. In the parasite, the N- and C-terminus face the lumen of the digestive vacuole. CQ uptake kinetics were performed by incubating oocytes in ND96 buffer adjusted to a pH of 4.5, 5.0, 5.5, or 6.0 and supplemented with 50 nM [^3H]CQ and one of 7 different CQ concentrations (10 µM, 50 µM, 100 µM, 200 µM, 300 µM, 400 µM, 500 µM CQ). The reaction was stopped at the 60 min time point, which is in the linear uptake range[22],[34] (Supplementary Fig. 17). For determination of the amount of drug uptake for each oocyte, the reaction medium was removed and the oocytes were washed three times with 2 ml of ice-cold ND96 buffer. Each oocyte was individually transferred to a scintillation vial containing 5% sodium dodecyl sulfate (200 μl) for lysis. The radioactivity of each sample was measured using a liquid scintillation analyzer Tri-Carb 4910 TR (PerkinElmer). Oocytes that were injected with water instead of RNA were analyzed in parallel, representing the uptake of a drug by diffusion and/or endogenous permeation pathways. The resulting value represents the “background“ level of drug accumulation in oocytes (in-depth discussion in[22]). […]

PfCRT variant E207F = experiment: CQ uptake assay, oocytes expressing E207F; format: cell-based, Plasmodium falciparum
Experimental: as §1, §2, §3

PfCRT variant H273A = target: T1, PfCRT variant H273A (Plasmodium falciparum, UniProt Q9N623, A220S/H273A/I356T/K76T/M74I/N326S/N75E/Q271E/R371I); experiment: CQ uptake assay, oocytes expressing H273A; format: cell-based
T1 sequence (Q9N623 1-424 M74I/N75E/K76T/A220S/Q271E/H273A/N326S/I356T/R371I): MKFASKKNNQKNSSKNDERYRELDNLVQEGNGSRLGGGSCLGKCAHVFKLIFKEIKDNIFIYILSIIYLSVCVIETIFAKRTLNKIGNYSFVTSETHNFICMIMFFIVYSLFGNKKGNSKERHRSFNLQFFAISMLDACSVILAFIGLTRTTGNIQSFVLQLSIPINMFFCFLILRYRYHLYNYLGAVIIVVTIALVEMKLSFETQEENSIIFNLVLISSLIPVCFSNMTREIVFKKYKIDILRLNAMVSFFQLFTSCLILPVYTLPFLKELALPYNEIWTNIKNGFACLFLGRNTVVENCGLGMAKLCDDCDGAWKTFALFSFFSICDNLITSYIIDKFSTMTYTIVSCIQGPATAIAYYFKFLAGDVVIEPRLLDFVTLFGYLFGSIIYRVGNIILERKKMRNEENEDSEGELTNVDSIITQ
Experimental: as §1, §2
Drug uptake assays were performed as described previously[21],[22],[24],[34]. […] The direction of radio-labeled drug transport is here from the mostly acidic extracellular solution (pH 4.5 or 6.0, as indicated) into the oocyte cytosol (pH ∼ 7.2), which corresponds to the efflux of drug from the acidic digestive vacuole (pH 5.2) into the parasite cytoplasm (pH 7.2). The topology of PfCRT in the oolemma is such that both the N- and C-terminus face the extracellular milieu[3],[22]. In the parasite, the N- and C-terminus face the lumen of the digestive vacuole. CQ uptake kinetics were performed by incubating oocytes in ND96 buffer adjusted to a pH of 4.5, 5.0, 5.5, or 6.0 and supplemented with 50 nM [^3H]CQ and one of 7 different CQ concentrations (10 µM, 50 µM, 100 µM, 200 µM, 300 µM, 400 µM, 500 µM CQ). The reaction was stopped at the 60 min time point, which is in the linear uptake range[22],[34] (Supplementary Fig. 17). […] The radioactivity of each sample was measured using a liquid scintillation analyzer Tri-Carb 4910 TR (PerkinElmer). Oocytes that were injected with water instead of RNA were analyzed in parallel, representing the uptake of a drug by diffusion and/or endogenous permeation pathways. […]

[1] = E207Y, 50 µM CQ, 1 h, mean ± SEM
[2] = pH 4.5, individual replicates, Fig 6b
[3] = pH 6.0, individual replicates, Fig 6b
[4] = ratio of activity pH 4.5 / pH 6.0
[5] = E207F, 50 µM CQ, 1 h, mean ± SEM
[6] = H273A, 50 µM CQ, 1 h, mean ± SEM

`CCN(CC)CCCC(C)Nc1ccnc2cc(Cl)ccc12` (centres unmarked) [CQ, chloroquine] was tested, and the “Activity at pH 4.5” value (PfCRT variant E207Y; [1]) was 1.70 ± 0.21 pmol h-1 oocyte-1, the “Activity at pH 6.0” value (PfCRT variant E207Y; [1]) was 1.84 ± 0.21 pmol h-1 oocyte-1 and the R-value (PfCRT variant E207Y; E207Y, CQ transport at pH 4.5 / pH 6.0) was 0.92 ± 0.06. For the same molecule, the “E207Y transport activity pH 4.5” value (PfCRT variant E207Y; [2]) was 2.50 pmol oocyte-1 h-1 and 1.56 pmol oocyte-1 h-1 and 1.84 pmol oocyte-1 h-1 and 1.50 pmol oocyte-1 h-1 and 1.10 pmol oocyte-1 h-1, the “E207Y transport activity pH 6.0” value (PfCRT variant E207Y; [3]) was 2.64 pmol oocyte-1 h-1 and 1.70 pmol oocyte-1 h-1 and 1.99 pmol oocyte-1 h-1 and 1.61 pmol oocyte-1 h-1 and 1.24 pmol oocyte-1 h-1 and the “E207Y R-value” (PfCRT variant E207Y; [4]) was 0.95 and 0.92 and 0.93 and 0.89. For the same molecule, the “Activity at pH 4.5” value (PfCRT variant E207F; [5]) was 2.67 ± 0.27 pmol h-1 oocyte-1, the “Activity at pH 6.0” value (PfCRT variant E207F; [5]) was 3.27 ± 0.42 pmol h-1 oocyte-1 and the R-value (PfCRT variant E207F; E207F, CQ transport at pH 4.5 / pH 6.0) was 0.84 ± 0.09. The “E207F transport activity pH 4.5” value (PfCRT variant E207F; [2]) was 3.33 pmol oocyte-1 h-1 and 3.06 pmol oocyte-1 h-1 and 2.01 pmol oocyte-1 h-1 and 2.27 pmol oocyte-1 h-1, the “E207F transport activity pH 6.0” value (PfCRT variant E207F; [3]) was 2.89 pmol oocyte-1 h-1 and 4.68 pmol oocyte-1 h-1 and 2.46 pmol oocyte-1 h-1 and 3.03 pmol oocyte-1 h-1 and the “E207F R-value” (PfCRT variant E207F; [4]) was 1.15 and 0.65 and 0.82 and 0.75. For the same molecule, the “Activity at pH 4.5” value (PfCRT variant H273A; [6]) was 0.08 ± 0.04 pmol h-1 oocyte-1, the “Activity at pH 6.0” value (PfCRT variant H273A; [6]) was 2.43 ± 0.40 pmol h-1 oocyte-1 and the R-value (PfCRT variant H273A; H273A, CQ transport at pH 4.5 / pH 6.0) was 0.03 ± 0.02. For the same molecule, the “H273A transport activity pH 4.5” value (PfCRT variant H273A; pH 4.5, single replicates, Fig 1d left) was 0.17 pmol oocyte-1 h-1 and 0.00 pmol oocyte-1 h-1 and 0.06 pmol oocyte-1 h-1 and the “H273A transport activity pH 6.0” value (PfCRT variant H273A; pH 6.0, single replicates, Fig 1d left) was 2.70 pmol oocyte-1 h-1 and 3.11 pmol oocyte-1 h-1 and 1.48 pmol oocyte-1 h-1.
